Experimental findings from patent publication US9326989B2, “Oleyl phosphocholine” (Max-Planck-Gesellschaft zur Foerderung der Wissenschaften …, priority 2007, dated 2016) are described below.

Data set [1] concerns canine leishmaniasis. Briefly: dosage range (start of activity to start of toxicity) in dog. The conditions noted are these: higher doses not tolerated, lower doses almost ineffective. It counts as in vivo.
The nature of data set [2]: stability in injection or infusion solutions or tablets. The conditions noted are these: 30° C. Type of data set: physicochemical. The text has this: For use in veterinary medicine, it is also useful that mixtures of oleyl phosphocholine (90%) and hexadecyl phosphocholine (10%) can be used and can be made available extremely inexpensively from olive oil.
A short description of data set [3]: renal values (creatinine) in long-term applications. It counts as in vivo. The conditions noted are these: long-term applications over several months, therapeutically effective dosages. The text has this: Oleyl phosphocholine is the first alkyl phosphocholine which can be used orally and intravenously.
The conditions of data set [4]: animal experiments.

Molecules are shown by their SMILES.

With `CCCCCCCCCCCCCCCCOP(=O)([O-])OCC[N+](C)(C)C` [HePC, hexadecyl phosphocholine], the “dose at which activity against canine leishmaniasis started” value in data set [1] is 3 mg per kg body weight per day.
For the compound `CCCCCCCC/C=C\CCCCCCCCOP(=O)([O-])OCC[N+](C)(C)C` [OlPC, oleyl phosphocholine], the stability result in data set [2] was “can be guaranteed over a longer period”. Moreover, in data set [3], the “renal values (increase in creatinine)” value is “no deterioration in the renal values”. For the same compound, in data set [4], the “therapeutic action compared to C18-PC (octadecyl) and C18:1(trans)-PC (elaidyl)” value is on record as “markedly superior”.
